Assay results published in BigSolDB 2.1.

CN1CC(=O)N2[C@H](c3ccc4c(c3)OCO4)c3[nH]c4ccccc4c3C[C@@H]2C1=O
solubility (mole fraction)
Settings | 298.15 K | 303.15 K | 308.15 K | 313.15 K | 318.15 K | 323.15 K | 328.15 K | 333.15 K
in transcutol | 0.00876 | 0.00973 | 0.0107 | 0.0119 | 0.0133 | 0.0149 | 0.0166 | 0.0182
in water | 5.74e-07 | 7.59e-07 | 1.02e-06 | 1.34e-06 | 1.75e-06 | 2.26e-06 | 2.77e-06 | 3.45e-06
